Measured values from the OPERA property sets (Mansouri et al. 2018).

Details: for log10 BCF / log10 biotransformation half-life (days): fish

Structure (SMILES) | boiling point | melting point | other results
CC(C)(C)CC(C)(C)C | 122 °C | -66.5 °C | log10 vapour pressure (mmHg): 1.3
CCCCOS(=O)OCCCC | 230 °C | – | –
Cc1cc2nc3c(=O)[nH]c(=O)nc-3n(C[C@H](O)[C@H](O)[C@H](O)CO)c2cc1C | – | – | ready biodegradability: not readily biodegradable
CC=C(CC)CC | 96 °C | – | log10 vapour pressure (mmHg): 1.72
COc1cc(N)c2c(c1N)C(=O)c1ccccc1C2=O | – | 242 °C | –
Cc1cc(O)c(C(C)(C)C)cc1C | 258 °C | 46 °C | –
COP(=O)(OC)O/C(=C\Cl)c1ccc(Cl)cc1Cl | – | 69.5 °C | log10 vapour pressure (mmHg): -5.01
CCCCOC(=O)/C=C\C(=O)OCCCC | 281 °C | -85 °C | log10 vapour pressure (mmHg): -3.21
C=CC(=O)OCCN(CC)CC | – | -60 °C | –
Nc1ccc(-c2ccc(N)cc2)cc1 | 401 °C | 120 °C | log10 Koc (L/kg): 3.46
CCCCCCCCN(C)CCCCCCCC | – | -30.1 °C | –
CCCCCCCCCCCCc1ccccc1O | – | – | ready biodegradability: not readily biodegradable
O=[N+]([O-])c1ccccc1-c1ccccc1 | 320 °C | 37.2 °C | –
COc1cc(Cl)c(Cl)c(Cl)c1OC | – | 66 °C | –
O=C(Nc1ccccc1)Nc1ccccc1 | 262 °C | 239 °C | log10 vapour pressure (mmHg): -5.12
CC(C)C(NC(N)=O)NC(N)=O | – | – | ready biodegradability: readily biodegradable
CCOC(=O)c1cccc(Br)c1 | 261 °C | – | –
CCCC#CCCC | 132 °C | -101 °C | log10 vapour pressure (mmHg): 0.985
O=[N+]([O-])c1ccc(O[C@@H]2O[C@H](CO)[C@H](O)[C@H](O)[C@H]2O)cc1 | – | 189 °C | –
O=Cc1ccc(C=O)cc1 | 246 °C | 117 °C | ready biodegradability: readily biodegradable
CCO[Si](C)(OCC)OCC | 142 °C | – | –
c1ccc2cc3c(ccc4ccccc43)cc2c1 | 438 °C | – | log10 Henry constant (atm·m³/mol): -4.92; log10 Koc (L/kg): 5.3; log10 biodegradation half-life (days): 2.46; log10 vapour pressure (mmHg): -6.68; ready biodegradability: not readily biodegradable; log10 BCF: 2.41; log10 biotransformation half-life (days): 0.02
CC(O)CN (configuration not stated) | 160 °C | 25 °C | log10 vapour pressure (mmHg): -0.328
CC(C)(C)c1ccc(Br)cc1 | 232 °C | 19 °C | –
Cc1occc1C(=O)Nc1ccccc1 | – | 110 °C | log10 Koc (L/kg): 2.48; log10 vapour pressure (mmHg): -6.82

Structure (SMILES) | boiling point | melting point | other results
CC(=O)NC(=O)COC(=O)c1ccccc1 | – | 104 °C | –
CC(=O)OCCN(CCOC(C)=O)c1ccc(N=Nc2nc3ccc(Cl)cc3s2)c(NC(=O)c2ccccc2)c1 | – | – | ready biodegradability: not readily biodegradable
O=[N+]([O-])c1ccc(Oc2ccccc2)cc1 | 320 °C | 61 °C | –
Cl[C@@H]1CCCC[C@H]1Cl | 200 °C | -1.5 °C | –
N[C@@H](CC(=O)O)C(=O)O | – | – | ready biodegradability: readily biodegradable
C=C[Si](OCC)(OCC)OCC | – | – | log10 vapour pressure (mmHg): 0.358
O=S1(=O)CC=CC1 | – | 64.5 °C | –
Cc1ccc(C(=O)c2ccccc2)c(C)c1 | 322 °C | – | –
O=C(O)c1cc(Cl)cc(Cl)c1 | – | 188 °C | –
COc1c(F)c(F)c(F)c(F)c1F | 138 °C | -37 °C | –
C=CCCCCCCCCCCCCCCCCCC | 341 °C | 28.5 °C | log10 vapour pressure (mmHg): -4.98
CNCCO | 158 °C | -4.5 °C | log10 vapour pressure (mmHg): 0.0346; ready biodegradability: readily biodegradable
CCC(=O)OCC(C)C | 137 °C | -71.4 °C | log10 vapour pressure (mmHg): 0.811
Cc1ccco1 | 65 °C | -87.5 °C | log10 vapour pressure (mmHg): 2.19
Cc1c(Cl)cccc1[N+](=O)[O-] | 238 °C | 37.8 °C | log10 BCF: 1.99
CC(=O)C1CCOC1=O (configuration not stated) | – | – | ready biodegradability: readily biodegradable
CN.Cl | – | 228 °C | –
Cc1cnc(C)cn1 | 155 °C | 15 °C | –
CSB(C)C | 71 °C | -84 °C | –
Clc1ccccc1Br | 204 °C | -12.3 °C | –
CC(c1ccc(Cl)cc1)c1ccc(Cl)cc1 | 320 °C | 56 °C | –
Cc1cc(C(=O)NCCc2ccc(S(=O)(=O)NC(=O)NN3CCCCCC3)cc2)no1 | – | 189 °C | –
Cc1cc(C)c2ccccc2c1C | – | 55.5 °C | –
Oc1ccc(Cl)c2c1CCC2 | – | 92 °C | –
CC1CCC(O)CC1C (configuration not stated) | 189 °C | – | –

Structure (SMILES) | boiling point | melting point | other results
CC(C)(CO)[N+](=O)[O-] | – | 89.5 °C | –
O=C(Oc1ccccc1C(=O)O)c1ccccc1O | – | 147 °C | –
CCCOC(=O)c1ccccc1 | 211 °C | -51.6 °C | log10 vapour pressure (mmHg): -0.867
Nc1ncc(C=O)s1 | – | – | ready biodegradability: readily biodegradable
O=C(O)Cc1ccc(Br)cc1 | – | 116 °C | –
Clc1ccc(CSC(Cn2cncn2)=Nc2ccc(Cl)cc2Cl)cc1 | – | 90 °C | log10 vapour pressure (mmHg): -9.2
CCCOC(=O)c1cc(O)c(O)c(O)c1 | – | 130 °C | –
O=P(O)(O)CP(=O)(O)O | – | 200 °C | –
CC(=O)[C@@]1(C)CC[C@H]2[C@@H]3C=C(C)C4=CC(=O)CC[C@]4(C)[C@H]3CC[C@@]21C | – | 144 °C | –
O=C(c1ccccc1)c1ccc(C(F)(F)F)cc1 | – | 115 °C | –
C=C[Si](C=C)(C=C)C=C | 130 °C | – | –
CC(C)CI | 121 °C | -93 °C | log10 vapour pressure (mmHg): 1.19
CCn1cc(C(=O)O)c(=O)c2cc(F)c(N3CCNCC3)cc21 | – | 228 °C | –
CC(C)c1ccccc1N | 221 °C | – | –
CCCCCCCCCCCCCCCCCC(=O)OCC | – | 33 °C | log10 vapour pressure (mmHg): -5.59
CCCCCCSCCCCCC | 230 °C | – | –
O=C(O)c1cc(Cl)c(O)c(Cl)c1 | – | 265 °C | –
CC(C)=CCC[C@@H](C)CC=O | 207 °C | – | –
CCOP(=S)(OCC)OCCSCC | – | – | log10 Koc (L/kg): 2.59
CCCC=CC(=O)O | 216 °C | 36.5 °C | –
CN(N=O)c1ccccc1 | – | 14.7 °C | –
COCC(=O)OC | 131 °C | – | –
N#Cc1c(Cl)c(Cl)c(Cl)c(Cl)c1C#N | – | – | ready biodegradability: not readily biodegradable
CCC(C)CC(CC)CC (configuration not stated) | 158 °C | – | –
COc1cc(Cc2cnc(N)nc2N)cc(OC)c1OC | – | 201 °C | –

Structure (SMILES) | boiling point | melting point | other results
CC[C@H]1CN2CC[C@]3(C(=O)Nc4ccccc43)[C@@H]2C[C@@H]1/C(=C\OC)C(=O)OC | – | 216 °C | –
C#CC(C)C | 26.3 °C | -89.7 °C | –
Cc1ccc(S(=O)(=O)N(Cl)Cl)cc1 | – | 83 °C | –
O=C(O)c1nc[nH]c1C(=O)O | – | 288 °C | –
Nc1ccc(O)c2c1C(=O)c1ccccc1C2=O | – | 216 °C | log10 vapour pressure (mmHg): -8.52
CCNc1nc(Cl)nc(N(CC)CC)n1 | – | 101 °C | log10 Koc (L/kg): 2.76
CC1=CCCCCC1 | 136 °C | – | –
CCN(CCO)c1ccc(/N=N/c2ccc([N+](=O)[O-])cc2Cl)cc1 | – | 133 °C | –
O=C1c2ccccc2CCc2ccccc21 | – | 30 °C | –
FB(F)c1ccccc1 | 98 °C | -36.2 °C | –
CC(O)Cn1cnc2c1c(=O)n(C)c(=O)n2C (configuration not stated) | – | 136 °C | –
Cc1cccc(Oc2ccccc2)c1 | 272 °C | – | ready biodegradability: not readily biodegradable
CCC/C=C/C=O | 146 °C | – | –
Cc1cccc(Cl)c1 | 162 °C | -47.8 °C | log10 vapour pressure (mmHg): 0.565
O=C(Cl)CCC(=O)Cl | 193 °C | 20 °C | log10 vapour pressure (mmHg): -0.432
CCCCCCNC(=O)COC(=O)c1ccccc1 | – | 130 °C | –
CCCCCCCCCCCCCCCCCCc1ccccc1 | 408 °C | 29 °C | –
CN1C(CCl)Nc2cc(Cl)c(S(N)(=O)=O)cc2S1(=O)=O (configuration not stated) | – | 225 °C | –
C=CCSCC=C | 139 °C | -85 °C | log10 vapour pressure (mmHg): 0.965
C=C(CCC)CCC | 118 °C | – | –
Oc1c(Cl)cc(Cl)c2ccccc12 | – | 108 °C | ready biodegradability: not readily biodegradable; log10 BCF: 1.35
C1=CC2C=CC1C2 | 89.5 °C | -19.1 °C | –
NC(N)=O.O=P(O)(O)O | – | 120 °C | –
Nc1nc(=O)cc(Cl)[nH]1 | – | 262 °C | –
COc1cc(C=CC(=O)O)cc(OC)c1OC | – | 127 °C | –

Structure (SMILES) | boiling point | melting point | other results
NS(=O)(=O)c1ccc(SCCCO)c(Cl)c1 | – | 127 °C | –
OCC(F)(F)C(F)(F)C(F)(F)CO | – | 79.5 °C | –
CCCOc1ccc2[nH]c(NC(=O)OC)nc2c1 | – | 230 °C | –
CC1(C)C2CCC(C=O)C1C2 (configuration not stated) | 220 °C | – | –
Cc1ccccc1Oc1cccnn1 | – | 78 °C | –
C[C@]12C=C(C=O)C(=O)C=C1CC[C@@H]1[C@@H]2[C@H](O)C[C@@]2(C)[C@H]1CC[C@]2(C)O | – | 210 °C | –
CC(C)(N)Cc1ccccc1Cl | – | – | ready biodegradability: not readily biodegradable
COc1nsnc1NS(=O)(=O)c1ccc(N)cc1 | – | 150 °C | –
C/C=C\C(=O)OC1C[C@H]2O[C@@H]3C=C(C)C(=O)C[C@]3(C)[C@]1(C)C21CO1 (some centres not stated) | – | 118 °C | –
O=C(Nc1ccc(Cl)cc1)Nc1ccc(Cl)c(C(F)(F)F)c1 | – | 214 °C | –
CCCCC/C=C\C/C=C\CCCCCCCC(=O)O | 365 °C | -8.5 °C | log10 vapour pressure (mmHg): -6.06
CON(C)C(=O)Nc1ccc(Oc2ccc3c(c2)OC(C)(OC)CC3(C)C)cc1 (configuration not stated) | – | 102 °C | –
N#Cc1cccc(N)c1 | 289 °C | 54.3 °C | –
CC(=O)CC(=O)Nc1ccc(C)cc1C | – | 90 °C | ready biodegradability: not readily biodegradable
COc1c(Cl)c(Cl)c([N+](=O)[O-])c(Cl)c1Cl | – | 103 °C | –
Cc1ccccc1C=O | 200 °C | – | –
CCCCCCCCC | 151 °C | -53.5 °C | log10 biodegradation half-life (days): 0.954; log10 vapour pressure (mmHg): 0.648; ready biodegradability: readily biodegradable; log10 biotransformation half-life (days): 0.97
O=Cc1ccc(O)cc1O | – | 135 °C | –
CCCCC1CCCC1 | 157 °C | -108 °C | log10 vapour pressure (mmHg): 0.602
OCCCOCCCO | – | – | ready biodegradability: not readily biodegradable
Cc1c([N+](=O)[O-])c(C)c([N+](=O)[O-])c(C(C)(C)C)c1[N+](=O)[O-] | – | 110 °C | ready biodegradability: not readily biodegradable; log10 BCF: 3.61
